Species: Rattus norvegicus
Test: Open TG-GATES - Regimen: Daily Repeat
Assay type: toxicity, organism-based, Sprague-Dawley
Parameters: regimen Daily Repeat, gender Male, age 6 weeks
Details: in vivo, po, 0 mg/kg, route gavage, dose level Control; for APTT / Bas / Eos / Fbg / Hb / Ht / Lym / MCH / MCHC / MCV / Mono / Neu / PT / Plat / RBC / Ret / WBC: tissue Blood; for KIDNEY_L / KIDNEY_R / KIDNEY_TOTAL: tissue Kidney; for LIVER: tissue Liver; for A/G / ALP / ALT / AST / BUN / CRE / Ca / Cl / DBIL / GLC / IP / K / LDH / Na / PL / RALB / TBIL / TC / TG / TP / gamma-GTP: tissue Plasma

## Brc1ccccc1 [BROMOBENZENE]
72 h, time 3 day
  TERMINAL_BW: 210.3 g
  APTT: 15.5 s
  Bas: 0%
  Eos: 1%
  Fbg: 264.4 mg/dL
  Hb: 13.1 g/dL
  Ht: 38.3%
  Lym: 79.8%
  MCH: 21.4 pg
  MCHC: 34.3%
  MCV: 62.4 fL
  Mono: 3.2%
  Neu: 15.6%
  PT: 12 s
  Plat: 116.4 x10_4/uL
  RBC: 613.6 x10_4/ul
  Ret: 7.8%
  WBC: 89.2 x10_2/uL
  KIDNEY_L: 0.9 g
  KIDNEY_R: 0.8 g
  KIDNEY_TOTAL: 1.7 g
  LIVER: 10 g
  A/G: 0.9
  ALP: 1625.4 IU/L
  ALT: 52.2 IU/L
  AST: 77.8 IU/L
  BUN: 14.8 mg/dL
  CRE: 0.2 mg/dL
  Ca: 10.2 mg/dL
  Cl: 104.8 meq/L
  DBIL: 0.012 mg/dL
  GLC: 187 mg/dL
  IP: 7.6 mg/dL
  K: 4 meq/L
  LDH: 63.6 IU/L
  Na: 141.8 meq/L
  PL: 142.6 mg/dL
  RALB: 2.6 g/dL
  TBIL: 0.04 mg/dL
  TC: 79 mg/dL
  TG: 101 mg/dL
  TP: 5.7 g/dL
  gamma-GTP: 1.2 IU/L
[…], time 7 day
  TERMINAL_BW: 242.1 g
  APTT: 15.7 s
  Bas: 0.2%
  Eos: 1%
  Fbg: 283.4 mg/dL
  Hb: 13.4 g/dL
  Ht: 39%
  Lym: 78.4%
  MCH: 21.4 pg
  MCHC: 34.5%
  MCV: 61.9 fL
  Mono: 2.8%
  Neu: 18%
  PT: 12.3 s
  Plat: 115.5 x10_4/uL
  RBC: 630.4 x10_4/ul
  Ret: 5.8%
  WBC: 112.8 x10_2/uL
  KIDNEY_L: 1 g
  KIDNEY_R: 1 g
  KIDNEY_TOTAL: 2 g
  LIVER: 11 g
  A/G: 0.8
  ALP: 1737.2 IU/L
  ALT: 51 IU/L
  AST: 72.6 IU/L
  BUN: 14.8 mg/dL
  CRE: 0.2 mg/dL
  Ca: 11 mg/dL
  Cl: 107 meq/L
  DBIL: 0.012 mg/dL
  GLC: 191.2 mg/dL
  IP: 7 mg/dL
  K: 3.9 meq/L
  LDH: 97 IU/L
  Na: 143.8 meq/L
  PL: 145.8 mg/dL
  RALB: 2.7 g/dL
  TBIL: 0.044 mg/dL
  TC: 75.4 mg/dL
  TG: 90.2 mg/dL
  TP: 5.9 g/dL
  gamma-GTP: 1 IU/L
[…], time 14 day
  TERMINAL_BW: 295 g
  APTT: 15.8 s
  Bas: 0%
  Eos: 0.8%
  Fbg: 320.2 mg/dL
  Hb: 13.8 g/dL
  Ht: 39.9%
  Lym: 77%
  MCH: 20.8 pg
  MCHC: 34.7%
  MCV: 60 fL
  Mono: 2.4%
  Neu: 19%
  PT: 12 s
  Plat: 113.5 x10_4/uL
  RBC: 665.6 x10_4/ul
  Ret: 4.4%
  WBC: 89.1 x10_2/uL
  KIDNEY_L: 1.2 g
  KIDNEY_R: 1.1 g
  KIDNEY_TOTAL: 2.3 g
  LIVER: 12.9 g
  A/G: 0.8
  ALP: 1619.6 IU/L
  ALT: 39.2 IU/L
  AST: 67.8 IU/L
  BUN: 15.8 mg/dL
  CRE: 0.2 mg/dL
  Ca: 10.8 mg/dL
  Cl: 106.6 meq/L
  DBIL: 0 mg/dL
  GLC: 191.6 mg/dL
  IP: 6.8 mg/dL
  K: 3.9 meq/L
  LDH: 64.2 IU/L
  Na: 143.2 meq/L
  PL: 153 mg/dL
  RALB: 2.7 g/dL
  TBIL: 0.032 mg/dL
  TC: 75.6 mg/dL
  TG: 95 mg/dL
  TP: 5.9 g/dL
  gamma-GTP: 1 IU/L
[…], time 28 day
  TERMINAL_BW: 384.4 g
  APTT: 17.6 s
  Bas: 0%
  Eos: 1.6%
  Fbg: 301 mg/dL
  Hb: 14.9 g/dL
  Ht: 42.4%
  Lym: 79.4%
  MCH: 19.4 pg
  MCHC: 35.1%
  MCV: 55.4 fL
  Mono: 2.6%
  Neu: 15.4%
  PT: 12.5 s
  Plat: 103.9 x10_4/uL
  RBC: 765 x10_4/ul
  Ret: 2.4%
  WBC: 110.4 x10_2/uL
  KIDNEY_L: 1.3 g
  KIDNEY_R: 1.3 g
  KIDNEY_TOTAL: 2.6 g
  LIVER: 16.6 g
  A/G: 0.8
  ALP: 1341.6 IU/L
  ALT: 45.8 IU/L
  AST: 64 IU/L
  BUN: 16 mg/dL
  CRE: 0.2 mg/dL
  Ca: 10.7 mg/dL
  Cl: 104 meq/L
  DBIL: 0.018 mg/dL
  GLC: 186.6 mg/dL
  IP: 6 mg/dL
  K: 3.8 meq/L
  LDH: 71.4 IU/L
  Na: 142.2 meq/L
  PL: 157.8 mg/dL
  RALB: 2.9 g/dL
  TBIL: 0.036 mg/dL
  TC: 80.2 mg/dL
  TG: 158.4 mg/dL
  TP: 6.5 g/dL
  gamma-GTP: 1 IU/L
